Reference: US7605005B2, “Method of screening for agents that modulate Tysnd1 level or activity in a cell” (Riken, priority 2005, dated 2009)

Columns and labels:
Tysnd1 = assay: Protease inhibition assay: processing of Acaa1 and Acox1 by recombinant Tysnd1; assay type: biochemical, mouse; conditions: preincubated 30 min at 25° C., then 12 h at 37° C., substrates Acaa1 and Acox1
IDE = molecular target: T1, IDE (Homo sapiens, UniProt P14735); conditions: cited from earlier work
T1 sequence (P14735 1-1019): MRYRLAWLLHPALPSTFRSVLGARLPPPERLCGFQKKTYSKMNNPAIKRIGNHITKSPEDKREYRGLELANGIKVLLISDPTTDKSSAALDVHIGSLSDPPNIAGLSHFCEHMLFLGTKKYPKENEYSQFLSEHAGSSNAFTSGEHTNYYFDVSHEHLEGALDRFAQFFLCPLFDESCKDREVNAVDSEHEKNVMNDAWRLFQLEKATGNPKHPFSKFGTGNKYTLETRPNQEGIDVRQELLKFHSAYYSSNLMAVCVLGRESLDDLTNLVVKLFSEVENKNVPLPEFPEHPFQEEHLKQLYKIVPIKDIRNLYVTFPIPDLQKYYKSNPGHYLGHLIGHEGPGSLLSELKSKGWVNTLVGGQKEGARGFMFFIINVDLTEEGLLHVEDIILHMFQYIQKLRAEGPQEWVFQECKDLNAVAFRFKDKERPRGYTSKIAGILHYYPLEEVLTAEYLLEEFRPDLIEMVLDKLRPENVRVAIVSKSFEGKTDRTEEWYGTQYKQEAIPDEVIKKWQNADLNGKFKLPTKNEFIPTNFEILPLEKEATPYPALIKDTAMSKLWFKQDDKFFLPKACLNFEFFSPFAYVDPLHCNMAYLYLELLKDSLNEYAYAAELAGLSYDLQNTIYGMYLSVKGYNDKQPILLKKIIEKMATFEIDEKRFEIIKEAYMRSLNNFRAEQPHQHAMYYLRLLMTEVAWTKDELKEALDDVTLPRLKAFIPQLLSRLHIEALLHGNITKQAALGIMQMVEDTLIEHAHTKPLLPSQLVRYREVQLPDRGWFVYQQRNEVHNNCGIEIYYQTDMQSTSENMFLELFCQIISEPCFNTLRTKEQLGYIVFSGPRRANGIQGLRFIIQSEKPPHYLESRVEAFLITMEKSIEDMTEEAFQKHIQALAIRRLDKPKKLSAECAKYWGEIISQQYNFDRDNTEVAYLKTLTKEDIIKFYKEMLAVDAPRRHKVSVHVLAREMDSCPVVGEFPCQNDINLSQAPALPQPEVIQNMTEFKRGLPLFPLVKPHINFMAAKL

fatty acid oxidation = conditions: reference 80; cited from earlier work

Structure (SMILES) | Inhibition of peroxisomal protease IDE (IDE) | Tysnd1 processing activity in the presence of protease inhibitor (Tysnd1; inhibitor 1 mM) | Fatty acid oxidation (fatty acid oxidation) | also measured
CC(C)C[C@H](NC(=O)[C@H]1O[C@@H]1C(=O)O)C(=O)NCCCCN=C(N)N (relative stereo) [E64, trans-epoxysuccinyl-1-leucylamido-(4-guanidino) butane] | not |  |  | Tysnd1 processing activity in the presence of protease inhibitor (Tysnd1; inhibitor 20 μM): resistant
CC(=O)N[C@@H](CC(C)C)C(=O)N[C@@H](CC(C)C)C(=O)N[C@H](C=O)CCCNC(=N)N [leupeptin] | not |  |  | Tysnd1 processing activity in the presence of protease inhibitor (Tysnd1; inhibitor 10 μM): resistant
CCN1C(=O)C=CC1=O [NEM, N-ethylmaleimide] | inhibited | completely abolished |  | 
COc1ccccc1OCC(O)CN1CCN(CC(=O)Nc2c(C)cccc2C)CC1 (stereo not drawn) [ranolazine] |  |  | inhibit | 
c1cnc2c(c1)ccc1cccnc12 [1,10-phenanthroline] |  | Partial inhibition |  | 
COc1ccc(CN2CCNCC2)c(OC)c1OC [trimetazidine] |  |  | inhibit | 
